The values that follow come from US10092575B2, “Substituted thiophene- and furan-fused azolopyrimidine-5-(6H)-one compounds” (DART NEUROSCIENCE (CAYMAN) LTD., priority 2012, dated 2018).

In general, EC50 refers to the concentration at which the effect is half-maximal. A higher EC50 goes with weaker potency.

One assay deals with human PDE1b enzyme (Homo sapiens (Human), UniProt Q01064). Description: PDE1b inhibitory assay (IMAP TR-FRET).
Details: not given
Regarding `O=c1n(Cc2ccccc2Cl)c2sccc2c2ncnn12` [Example 1, 6-(2-Chlorobenzyl)thieno[3,2-e][1,2,4]triazolo[1,5-c]pyrimidin-5(6H)-one], the EC50 was in the range of 1 to 10 µM.

In the case of `O=c1n(Cc2cccc(Cl)c2)c2sccc2c2ncnn12` [Example 2, 6-(3-Chlorobenzyl)thieno[3,2-e][1,2,4]triazolo[1,5-c]pyrimidin-5(6H)-one], the EC50 is 1 to 10 µM.

Consider `Cc1csc2c1c1ncnn1c(=O)n2Cc1ccc(Cl)cc1` [Example 3, 6-(4-Chlorobenzyl)-9-methylthieno[3,2-e][1,2,4]triazolo[1,5-c]pyrimidin-5(6H)-one], for which the EC50 fell in the range of 0.1 to 1 µM.

`O=c1n(Cc2ccc(Cl)cc2)c2sccc2c2ncnn12` [Example 5, 6-(4-Chlorobenzyl)thieno[3,2-e][1,2,4]triazolo[1,5-c]pyrimidin-5(6H)-one] yielded an EC50 of 0.1 to 1 µM.

In the case of `Cc1csc2c1c1ncnn1c(=O)n2Cc1ccccc1` [Example 6, 6-Benzyl-9-methylthieno[3,2-e][1,2,4]triazolo[1,5-c]pyrimidin-5(6H)-one], the EC50 lay in the range of 0.1 to 1 µM.

In the case of `O=c1n(Cc2ccccc2Cl)c2sc(Cc3ccccc3)cc2c2ncnn12` [Example 8, 8-benzyl-6-(2-Chlorobenzyl)thieno[3,2-e][1,2,4]triazolo[1,5-c]pyrimidin-5(6H)-one], the EC50 fell in the range of 0.1 to 1 µM.

Compound `O=c1n(Cc2cccc(Cl)c2)c2sc(Cc3ccccc3)cc2c2ncnn12` [Example 9, 8-Benzyl-6-(3-chlorobenzyl)thieno[3,2-e][1,2,4]triazolo[1,5-c]pyrimidin-5(6H)-one] displayed an EC50 of 0.1 to 1 µM.

As to `Cc1csc2c1c1ncnn1c(=O)n2Cc1ccccc1Cl` [Example 10, 6-(2-Chlorobenzyl)-9-methylthieno[3,2-e][1,2,4]triazolo[1,5-c]pyrimidin-5(6H)-one], the EC50 was in the range of 1 to 10 µM.

`Cc1csc2c1c1ncnn1c(=O)n2Cc1cccc(Cl)c1` [Example 11, 6-(3-Chlorobenzyl)-9-methylthieno[3,2-e][1,2,4]triazolo[1,5-c]pyrimidin-5(6H)-one] showed an EC50 of 0.1 to 1 µM.

Consider `Cc1cc2c(s1)n(Cc1ccccc1)c(=O)n1ncnc21` [Example 12, 6-Benzyl-8-methylthieno[3,2-e][1,2,4]triazolo[1,5-c]pyrimidin-5(6H)-one], for which the EC50 was 1 to 10 µM.

With `Cc1cc2c(s1)n(Cc1ccccc1Cl)c(=O)n1ncnc21` [Example 13, 6-(2-Chlorobenzyl)-8-methylthieno[3,2-e][1,2,4]triazolo[1,5-c]pyrimidin-5(6H)-one], the EC50 was in the range of 1 to 10 µM.

Compound `Cc1cc2c(s1)n(Cc1ccc(Cl)cc1)c(=O)n1ncnc21` [Example 15, 6-(4-Chlorobenzyl)-8-methylthieno[3,2-e][1,2,4]triazolo[1,5-c]pyrimidin-5(6H)-one] displayed a 50% effective concentration (EC50) of 0.1 to 1 µM.

As to `Cc1cc2c(s1)n(Cc1cccc(Cl)c1)c(=O)n1ncnc21` [Example 16, 6-(3-Chlorobenzyl)-8-methylthieno[3,2-e][1,2,4]triazolo[1,5-c]pyrimidin-5(6H)-one], the EC50 is 1 to 10 µM.

Regarding `O=c1n(Cc2ccccc2)c2sc(Cc3ccccc3)cc2c2ncnn12` [Example 17, 6,8-Dibenzylthieno[3,2-e][1,2,4]triazolo[1,5-c]pyrimidin-5(6H)-one], the EC50 fell in the range of 0.1 to 1 µM.

`O=c1n(Cc2ccc(-c3ccccc3)cc2)c2sc(Cc3ccccc3)cc2c2ncnn12` [Example 18, 6-([1,1′-Biphenyl]-4-ylmethyl)-8-benzylthieno[3,2-e][1,2,4]triazolo[1,5-c]pyrimidin-5(6H)-one] gave an EC50 of 1 to 10 µM.

In the case of `CC(C)CCc1cc2c(s1)n(Cc1ccccc1Cl)c(=O)n1ncnc21` [Example 19, 6-(2-Chlorobenzyl)-8-isopentylthieno[3,2-e][1,2,4]triazolo[1,5-c]pyrimidin-5(6H)-one], the EC50 fell in the range of 1 to 10 µM.

On to `CC(C)CCc1cc2c(s1)n(Cc1cccc(Cl)c1)c(=O)n1ncnc21` [Example 20, 6-(3-Chlorobenzyl)-8-isopentylthieno[3,2-e][1,2,4]triazolo[1,5-c]pyrimidin-5(6H)-one], for which the EC50 lay in the range of 1 to 10 µM.

Compound `O=c1n(Cc2ccc(Cl)cc2)c2sc(Cc3ccccc3)cc2c2ncnn12` [Example 22, 8-Benzyl-6-(4-chlorobenzyl)thieno[3,2-e][1,2,4]triazolo[1,5-c]pyrimidin-5(6H)-one] yielded an EC50 of 0.1 to 1 µM.

In turn, `CC(C)CCc1cc2c(s1)n(Cc1ccc(Cl)cc1)c(=O)n1ncnc21` [Example 23, 6-(4-Chlorobenzyl)-8-isopentylthieno[3,2-e][1,2,4]triazolo[1,5-c]pyrimidin-5(6H)-one] came in with an EC50 of 0.1 to 1 µM.

Take `O=c1n(Cc2ccccc2)c2sccc2c2ncnn12` [Example 24, 6-Benzylthieno[3,2-e][1,2,4]triazolo[1,5-c]pyrimidin-5(6H)-one]: the EC50 is 1 to 10 µM.

For the compound `CC(C)CCc1cc2c(s1)n(Cc1ccccc1)c(=O)n1ncnc21` [Example 25, 6-Benzyl-8-isopentylthieno[3,2-e][1,2,4]triazolo[1,5-c]pyrimidin-5(6H)-one], the EC50 lay in the range of 0.1 to 1 µM.

In turn, `Cc1sc2c(c1C)c1ncnn1c(=O)n2Cc1ccc(Cl)cc1` [Example 26, 6-(4-Chlorobenzyl)-8,9-dimethylthieno[3,2-e][1,2,4]triazolo[1,5-c]pyrimidin-5(6H)-one] registered an EC50 of 0.1 to 1 µM.

`COc1ccc(Cn2c(=O)n3ncnc3c3ccsc32)cc1` [Example 27, 6-(4-Methoxybenzyl)thieno[3,2-e][1,2,4]triazolo[1,5-c]pyrimidin-5(6H)-one] showed an EC50 of 0.1 to 1 µM.

As to `COc1ccc(Cn2c(=O)n3ncnc3c3c(C)csc32)cc1` [Example 28, 6-(4-Methoxybenzyl)-9-methylthieno[3,2-e][1,2,4]triazolo[1,5-c]pyrimidin-5(6H)-one], the EC50 fell in the range of 0.1 to 1 µM.

`COc1ccc(Cn2c(=O)n3ncnc3c3cc(CN(C)C)sc32)cc1` [Example 30, 8-((Dimethylamino)methyl)-6-(4-methoxybenzyl)thieno[3,2-e][1,2,4]triazolo[1,5-c]pyrimidin-5(6H)-one] registered an EC50 of 0.1 to 1 µM.

`COc1ccc(Cn2c(=O)n3ncnc3c3cc(CN4CCN(C)CC4)sc32)cc1` [Example 32, 6-(4-Methoxybenzyl)-8-((4-methylpiperazin-1-yl)methyl)thieno[3,2-e][1,2,4]triazolo[1,5-c]pyrimidin-5(6H)-one] showed an EC50 of 0.1 to 1 µM.

The assay is the same for the next values; noted with them: negative log of half-maximal molar inhibitory concentration; 200 nM FAM-cAMP; reported as ranges.
For `O=c1n(Cc2ccc(-c3ccccc3)cc2)c2sccc2c2ncnn12` [Example 4, 6-([1,1′-Biphenyl]-4-ylmethyl)thieno[3,2-e][1,2,4]triazolo[1,5-c]pyrimidin-5(6H)-one], the “PDE1b (pEC50)” value was less than 5.

Consider `Cc1csc2c1c1ncnn1c(=O)n2Cc1ccc(-c2ccccc2)cc1` [Example 7, 6-([1,1′-Biphenyl]-4-ylmethyl)-9-methylthieno[3,2-e][1,2,4]triazolo[1,5-c]pyrimidin-5(6H)-one], for which the “PDE1b (pEC50)” value is on record as less than 5.

For `Cc1cc2c(s1)n(Cc1ccc(-c3ccccc3)cc1)c(=O)n1ncnc21` [Example 14, 6-([1,1′-Biphenyl]-4-ylmethyl)-8-methylthieno[3,2-e][1,2,4]triazolo[1,5-c]pyrimidin-5(6H)-one], the “PDE1b (pEC50)” value is less than 5.

Take `CC(C)CCc1cc2c(s1)n(Cc1ccc(-c3ccccc3)cc1)c(=O)n1ncnc21` [Example 21, 6-([1,1′-Biphenyl]-4-ylmethyl)-8-isopentylthieno[3,2-e][1,2,4]triazolo[1,5-c]pyrimidin-5(6H)-one]: the “PDE1b (pEC50)” value is given as less than 5.

As for `COc1ccc(Cn2c(=O)n3ncnc3c3cc(CN4CCCOCC4)sc32)cc1` [Example 29, 8-((1,4-Oxazepan-4-yl)methyl)-6-(4-methoxybenzyl)thieno[3,2-e][1,2,4]triazolo[1,5-c]pyrimidin-5(6H)-one], the “PDE1b (pEC50)” value is reported as more than 7.

For the compound `COc1ccc(Cn2c(=O)n3ncnc3c3cc(CN4CCOCC4)sc32)cc1` [Example 31, 6-(4-Methoxybenzyl)-8-(morpholinomethyl)thieno[3,2-e][1,2,4]triazolo[1,5-c]pyrimidin-5(6H)-one], the “PDE1b (pEC50)” value is given as more than 7.

For `COc1ccc(Cn2c(=O)n3ncnc3c3cc(CN4C[C@@H](C)O[C@@H](C)C4)sc32)cc1` [Example 33, 8-(((2S,6R)-2,6-Dimethylmorpholino)methyl)-6-(4-methoxybenzyl)thieno[3,2-e][1,2,4]triazolo[1,5-c]pyrimidin-5(6H)-one], the “PDE1b (pEC50)” value was more than 7.

As for `CCN1CCN(Cc2cc3c(s2)n(Cc2ccc(OC)cc2)c(=O)n2ncnc32)CC1=O` [Example 34, 8-((4-Ethyl-3-oxopiperazin-1-yl)methyl)-6-(4-methoxybenzyl)thieno[3,2-e][1,2,4]triazolo[1,5-c]pyrimidin-5(6H)-one], the “PDE1b (pEC50)” value is on record as more than 7.

In the case of `COc1ccc(Cn2c(=O)n3ncnc3c3cc(CN4CCN(S(C)(=O)=O)CC4)sc32)cc1` [Example 35, 6-(4-Methoxybenzyl)-8-((4-(methylsulfonyl)piperazin-1-yl)methyl)thieno[3,2-e][1,2,4]triazolo[1,5-c]pyrimidin-5(6H)-one], the “PDE1b (pEC50)” value is listed as more than 7.

`COc1ccc(Cn2c(=O)n3ncnc3c3cc(CN4CCOC(C)(C)C4)sc32)cc1` [Example 36]: the “PDE1b (pEC50)” value was more than 7.

Regarding `COc1ccc(Cn2c(=O)n3ncnc3c3cc(CN4CC5CC4CO5)sc32)cc1` (stereo not drawn) [Example 37, 8-(2-Oxa-5-azabicyclo[2.2.1]heptan-5-ylmethyl)-6-(4-methoxybenzyl)thieno[3,2-e][1,2,4]triazolo[1,5-c]pyrimidin-5(6H)-one], the “PDE1b (pEC50)” value is on record as more than 7.

Consider `COc1ccc(Cn2c(=O)n3ncnc3c3cc(CN4CC5(CCOCC5)C4)sc32)cc1` [Example 38, 8-(7-Oxa-2-azaspiro[3.5]nonan-2-ylmethyl)-6-(4-methoxybenzyl)thieno[3,2-e][1,2,4]triazolo[1,5-c]pyrimidin-5(6H)-one], for which the “PDE1b (pEC50)” value was more than 7.

For `COc1ccc(Cn2c(=O)n3ncnc3c3cc(CN4CCC5(CC4)COC5)sc32)cc1` [Example 39, 8-(2-Oxa-7-azaspiro[3.5]nonan-7-ylmethyl)-6-(4-methoxybenzyl)thieno[3,2-e][1,2,4]triazolo[1,5-c]pyrimidin-5(6H)-one], the “PDE1b (pEC50)” value is more than 7.
